Data taken from patent publication US8022225B2, “Triazole derivative” (Taisho Pharmaceutical Co., Ltd, priority 2004, dated 2011).

Columns and labels:
human Edg-1(S1P1) [1] = target: T1, human Edg-1(S1P1) (Homo sapiens, UniProt P21453); test: Cell system binding test: inhibition of [3H]-S1P binding to Edg-1(S1P1) gene transferred HEK-293 cells; conditions: [3H]-S1P 10 nM
T1 construct: expressed in transfected cells; host or cells: HEK-293

human Edg-1(S1P1) [2] = target: T1, human Edg-1(S1P1); test: Membrane system binding test: inhibition of [33P]-S1P binding to the membrane fraction of Edg-1(S1P1) gene transferred HEK-293 cells; conditions: [33P]-S1P 0.1 nM
How it was run: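 Compound tested at 10^−5 M final (0.1% DMSO) for blocking 0.1 nM [^33P]-S1P binding to S1P1-expressing HEK-293 membranes, 30 °C, 1 h. Radioactivity retained on filters was counted, and percent inhibition derived relative to vehicle binding, correcting for the background of non-transfected HEK-293 membranes.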

[3] = test compound 10^-5 M, 1 hour, read-out: Edg-1(S1P1) binding inhibition rate (cell system binding test)
[4] = test compound 10^-5 M, 1 hour at 30° C., HEK-293 membrane fraction, read-out: Edg-1(S1P1) binding inhibition rate (membrane system binding test)
[5] = 10 μM compound, read-out: Cell system binding test % inhibition (10 μM)
[6] = 10 μM compound, membrane fraction of Edg-1(S1P1) gene transferred HEK-293 cells, read-out: Membrane system binding test % inhibition (10 μM)

T1 sequence (P21453 whole entry): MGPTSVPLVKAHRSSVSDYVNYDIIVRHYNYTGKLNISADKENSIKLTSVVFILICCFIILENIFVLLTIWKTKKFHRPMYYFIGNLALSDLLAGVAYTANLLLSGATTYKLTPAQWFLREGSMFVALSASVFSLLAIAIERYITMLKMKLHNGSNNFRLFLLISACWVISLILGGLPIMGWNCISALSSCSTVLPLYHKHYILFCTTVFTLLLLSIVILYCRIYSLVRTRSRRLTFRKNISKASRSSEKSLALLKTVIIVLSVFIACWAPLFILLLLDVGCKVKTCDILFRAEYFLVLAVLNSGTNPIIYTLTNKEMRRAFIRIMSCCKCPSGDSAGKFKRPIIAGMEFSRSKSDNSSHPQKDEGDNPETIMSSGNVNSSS

Row | SMILES | inhibition at 10 µM (human Edg-1(S1P1) [1]; [3]) [%] | inhibition at 10 µM (human Edg-1(S1P1) [2]; [4]) [%] | inhibition at 10 µM (human Edg-1(S1P1) [1]; [5]) [%] | inhibition at 10 µM (human Edg-1(S1P1) [2]; [6]) [%]
1 | CCn1c(OC(C)C)nnc1[C@@H](C)NS(=O)(=O)c1ccc2nsnc2c1 [Compound 472] | 102 | 94.4 | – | –
2 | CCn1c(SCc2ccccn2)nnc1[C@@H](C)NS(=O)(=O)c1ccc(Cl)cc1 [Compound 63] | – | – | 93.7 | 99.7
3 | CCn1c(OCC(F)(F)F)nnc1[C@@H](C)NS(=O)(=O)c1ccc2nsnc2c1 [Compound 499] | 107 | 89.1 | – | –
4 | CCCn1c(OC)nnc1[C@@H](C)NS(=O)(=O)c1ccc(Cl)cc1 [Compound 541] | 97.1 | 75.8 | – | –
5 | CCn1c(OC)nnc1[C@@H](C)NS(=O)(=O)c1ccc(Br)s1 [Compound 208] | – | – | 99.9 | 93
6 | CCn1c(OC)nnc1[C@@H](C)NS(=O)(=O)c1ccc(NC(C)=O)c(Cl)c1 [Compound 211] | – | – | 93.9 | 46.9
7 | CCn1c(OC)nnc1[C@@H](C)NS(=O)(=O)c1cc(F)ccc1F [Compound 286] | – | – | 97.5 | 57.4
8 | CCn1c(SCCCc2ccncc2)nnc1[C@@H](C)NS(=O)(=O)c1ccc(Cl)cc1 [Compound 68] | – | – | 93 | 97.9
9 | CCn1c(OC)nnc1[C@@H](C)NS(=O)(=O)c1ccc2c(c1)OCCO2 [Compound 338] | – | – | 103 | 69.4
10 | CCOc1nnc([C@@H](C)NS(=O)(=O)c2cccc(OC(F)(F)F)c2)n1CC [Compound 415] | – | – | 99.6 | 75.1
11 | CCn1c(OC)nnc1[C@@H](C)NS(=O)(=O)c1cc(S(=O)(=O)c2ccccc2)cs1 [Compound 250] | – | – | 88.7 | 42.9
12 | CCn1c(OC)nnc1[C@@H](C)NS(=O)(=O)c1sc2ccc(Cl)cc2c1C [Compound 214] | – | – | 96.8 | 59.3
13 | CCn1c(OC(C)C)nnc1[C@@H](C)NS(=O)(=O)c1cccc(OC(F)(F)F)c1 [Compound 469] | 95.9 | 83.9 | – | –
14 | CCCSc1nnc([C@@H](C)NS(=O)(=O)c2ccc(Cl)cc2)n1CC [Compound 2] | – | – | 88.5 | 101
15 | CCn1c(OCCN(C)C)nnc1[C@@H](C)NS(=O)(=O)c1ccc(Cl)cc1 [Compound 187] | – | – | 82.9 | 46.4
16 | CCOc1nnc([C@@H](C)NS(=O)(=O)c2ccc3nsnc3c2)n1CC [Compound 431] | – | – | 98 | 94.6
17 | CCn1c(OC(C)C)nnc1[C@@H](C)NS(=O)(=O)c1ccc(C)c(Cl)c1 [Compound 454] | 91.7 | 92.6 | – | –
18 | CCn1c(OC)nnc1[C@@H](C)NS(=O)(=O)c1ccc2c(c1)CCO2 [Compound 337] | – | – | 102 | 61.3
19 | CCn1c(OC)nnc1[C@@H](C)NS(=O)(=O)c1ccc(Br)c(F)c1 [Compound 317] | – | – | 97.2 | 95.8
20 | CCn1c(SC(C)c2ccccc2)nnc1[C@@H](C)NS(=O)(=O)c1ccc(Cl)cc1 (stereo partly drawn) [Compound 41] | – | – | 87.3 | 97.3
21 | CCn1c(SCc2ccc(C)cc2)nnc1[C@@H](C)NS(=O)(=O)c1ccc(Cl)cc1 [Compound 59] | – | – | 93.2 | 96.9
22 | CCOc1nnc([C@@H](C)NS(=O)(=O)c2ccc(F)c(C(F)(F)F)c2)n1CC [Compound 399] | – | – | 88.5 | 90.9
23 | CCn1c(OC)nnc1[C@@H](C)NS(=O)(=O)c1cccc(C)c1 [Compound 248] | – | – | 99.5 | 83.3

Row | SMILES | inhibition at 10 µM (human Edg-1(S1P1) [1]; [3]) [%] | inhibition at 10 µM (human Edg-1(S1P1) [2]; [4]) [%] | inhibition at 10 µM (human Edg-1(S1P1) [1]; [5]) [%] | inhibition at 10 µM (human Edg-1(S1P1) [2]; [6]) [%]
24 | CCOc1nnc([C@@H](C)NS(=O)(=O)c2ccc(F)c(Cl)c2)n1CC [Compound 407] | – | – | 94.7 | 81.9
25 | CCOc1nnc([C@@H](C)NS(=O)(=O)c2ccc(OC)cc2)n1CC [Compound 420] | – | – | 93.3 | 50.1
26 | CCn1c(OCCCN2CCOCC2)nnc1[C@@H](C)NS(=O)(=O)c1ccc(Cl)cc1 [Compound 394] | – | – | 82.9 | 76.9
27 | CCn1c(SC/C=C/c2ccccc2)nnc1[C@@H](C)NS(=O)(=O)c1ccc(Cl)cc1 [Compound 38] | – | – | 91.5 | 81
28 | CCn1c(OC)nnc1[C@@H](C)NS(=O)(=O)Cc1cc(Cl)cc(Cl)c1 [Compound 292] | – | – | 96.7 | 51.4
29 | CCn1c(OC)nnc1[C@@H](C)NS(=O)(=O)c1cccc(F)c1 [Compound 299] | – | – | 94.5 | 44.4
30 | CCOc1nnc([C@@H](C)NS(=O)(=O)c2ccc(C(F)(F)F)cc2)n1CC [Compound 432] | – | – | 92.2 | 82.9
31 | CCn1c(OCCCO)nnc1[C@@H](C)NS(=O)(=O)c1ccc(Cl)cc1 [Compound 191] | – | – | 97.1 | 88.3
32 | CCn1c(OC(C)C)nnc1[C@@H](C)NS(=O)(=O)c1cccc(OC)c1 [Compound 481] | 96.3 | 64.9 | – | –
33 | CCn1c(OC)nnc1[C@@H](C)NS(=O)(=O)c1cccc(Cl)c1F [Compound 322] | – | – | 95.9 | 43.5
34 | CCn1c(SCCCCCCN(C)C)nnc1[C@@H](C)NS(=O)(=O)c1ccc(Cl)cc1 [Compound 66] | – | – | 84 | 90.6
35 | CCn1c(SCCNC(=O)c2ccncc2)nnc1[C@@H](C)NS(=O)(=O)c1ccc(Cl)cc1 [Compound 74] | – | – | 93.6 | 109
36 | CCn1c(SCC2CC2)nnc1[C@@H](C)NS(=O)(=O)c1ccc(Cl)cc1 [Compound 10] | – | – | 85.6 | 54.3
37 | CCn1c(OC)nnc1[C@@H](C)NS(=O)(=O)c1cc(C)ccc1F [Compound 320] | – | – | 93.5 | 47.9
38 | CCn1c(OC(C)C)nnc1[C@@H](C)NS(=O)(=O)c1ccc(F)cc1 [Compound 477] | 92 | 77.1 | – | –
39 | CCn1c(SC2CCOC2)nnc1[C@@H](C)NS(=O)(=O)c1ccc(Cl)cc1 (stereo partly drawn) [Compound 49] | – | – | 94.8 | 93.9
40 | CCn1c(SCCc2ccccn2)nnc1[C@@H](C)NS(=O)(=O)c1ccc(Cl)cc1 [Compound 62] | – | – | 92.9 | 90.6
41 | CCOc1nnc([C@@H](C)NS(=O)(=O)c2ccc(Br)c(Br)c2)n1CC [Compound 412] | – | – | 99.9 | 89.1
42 | CCn1c(OC)nnc1[C@@H](C)NS(=O)(=O)c1ccc2c(c1)OCCCO2 [Compound 343] | – | – | 98.9 | 41.4
43 | CCOc1nnc([C@@H](C)NS(=O)(=O)c2cc(Cl)c(Cl)s2)n1CC [Compound 434] | – | – | 95.6 | 90.5
44 | CCn1c(SCc2ccccc2)nnc1[C@@H](C)NS(=O)(=O)c1ccc(Cl)cc1 [Compound 5, N-{(1R)-1-[5-(benzylthio)-4-ethyl-4H-1,2,4-triazol-3-yl]ethyl}-4-chloro-benzenesulfonamide] | – | – | 97.2 | 81.2
45 | CCn1c(OCCO)nnc1[C@@H](C)NS(=O)(=O)c1ccc(Cl)cc1 [Compound 190] | – | – | 91.1 | 41.3
